According to patent US8481527B2, “Benzamide derivatives as bradykinin antagonists” (Richter Gedeon Nyrt., priority 2006, dated 2013):
Structures can show the parent of a compound that is named as a salt.

Tests used:
[1] = target: T1, recombinant human B1 receptors (Homo sapiens, UniProt P46663); experiment: Functional assay: antagonist potency by cytosolic calcium measurement in CHO-B1 cells (agonist LysDABK); type: cell-based; conditions: CHO-B1 cells, LysDABK at EC80, fluo-4 [Ca2+]i; read-out: B1 func.
T1 construct: host or cells: CHO (CHO-B1)
T1 sequence (P46663 1-353): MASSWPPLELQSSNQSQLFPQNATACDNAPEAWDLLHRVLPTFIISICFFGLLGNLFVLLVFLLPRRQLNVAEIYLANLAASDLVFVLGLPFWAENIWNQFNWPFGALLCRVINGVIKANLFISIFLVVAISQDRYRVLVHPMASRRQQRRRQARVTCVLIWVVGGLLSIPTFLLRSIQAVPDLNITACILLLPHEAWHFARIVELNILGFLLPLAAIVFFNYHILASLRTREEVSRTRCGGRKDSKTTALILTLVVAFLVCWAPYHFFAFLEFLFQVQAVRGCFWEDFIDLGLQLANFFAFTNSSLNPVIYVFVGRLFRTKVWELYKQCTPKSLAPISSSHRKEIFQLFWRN
Method: Assessment of Antagonist Potency at B1 and B2 Receptors In Vitro by Measurement of Cytosolic Calcium Ion Concentration with a Plate Reader Fluorimeter in Cells Expressing Recombinant Human B1 or B2 Receptors
Chinese hamster ovary (CHO) cells stably expressing recombinant human B1 (CHO-B1, Euroscreen) or B2 (CHO-B2, Perkin-Elmer) receptors were cultured in Dulbecco's Modified Eagle's Medium (DMEM) containing 10% Fetal Calf Serum (FCS), 100 U/ml penicillin, 0.1 mg/ml streptomycin, 0.25 μg/ml amphotericin B, 1% Minimum Essential Medium Eagle (MEM), non essential amino acid solution, 600 μg/ml G418, 1% pyruvate (for the B2 cell line). Cells were kept at 37° C. in a humidified incubator in an atmosphere of 5% CO2/95% air and were passaged 1:4 three times a week. Cells were plated at 1.5-2.5×10^4 cell/well on standard 96-well microplates, measurements of cytosolic calcium ion concentration ([Ca^2+]i) were carried out 1-2 days after cell plating.
Measurements of [Ca^2+]i were carried out on CHO-B1 and CHO-B2 cells stably expressing human B1 and B2 receptors, respectively. Cells were grown in standard 96-well microplates and before the measurement were loaded with a fluorescent Ca^2+-sensitive dye, fluo-4/AM (2 μM): after removing the culture medium the dye was added to the cells (dissolved in assay buffer: 145 mM NaCl, 5 mM KCl, 2 mM MgCl2, 2 mM CaCl2, 10 mM HEPES, 20 mM D-glucose, 2 mM probenecid, 100 μl/well) and cells were incubated at 37° C. in a humidified incubator in an atmosphere of 5% CO2/95% air for 40-120 min. To stop dye loading cells were washed twice with assay buffer. After washing, various concentrations of the test compounds (diluted in extracellular medium from a DMSO stock solution, final DMSO concentration was <0.1%) or buffer were added to each well depending on the experimental setup. After incubation at 37° C. for 20-25 min. baseline and agonist-evoked changes of [Ca^2+]i were measured column by column with a plate reader fluorimeter (Fluoroskan Ascent, Labsystems). Excitation and detection of emission was carried out from the bottom of the plate. Filters used for Fluo-4: excitation filter—485 nm, emission filter—538 nm. The whole measurement process was performed at 37° C. and was controlled by custom software. Inhibitory potency of the test compounds was assessed by measuring the reduction in the agonist-evoked [Ca^2+]i-elevation in the presence of different concentrations of the compounds. The agonists were LysDABK for CHO-B1, and bradykinin for CHO-B2 cells. Agonists were applied at an EC80 concentration, the EC80-values were derived from daily determined dose-response curves. Fluorescence data were expressed as ΔF/F (fluorescence change normalized to baseline). All treatments on a single plate were measured in multiple wells. Data from all wells with the same treatment were averaged and the average values were used for analysis. Inhibitory potency of a compound at a single concentration point was expressed as percent inhibition of the control agonist response. Sigmoidal concentration-inhibition curves were fitted to the data (derived from at least three independent experiments) and IC50-values were determined as the concentration that produces half of the maximal inhibition caused by the compound.

[2] = target: T2, human recombinant bradykinin B1 receptor (Homo sapiens, UniProt P46663); experiment: Human recombinant bradykinin B1 receptor binding; conditions: CHO cell membranes, [3H]-[Des-Arg10] Kallidin radioligand; read-out: B1 binding
T2 construct: purchased Euroscreen ES-091; host or cells: CHO cells
T2 sequence (P46663 1-353): T1 sequence (P46663 1-353)
Method: Receptor Binding Assays 1. Human Recombinant Bradykinin B1 Receptor Binding
Binding assays were carried out on human recombinant bradykinin) receptors (expressed in CHO cells) according to the Euroscreen Technical Data Sheet (Cat.No.:ES-091). 20 μg protein/tube was incubated with [3,4-prolyl-3,4-^3H(N)]-[Des-Arg^10] Kallidin as radioligand. Non specific binding was determined in the presence of 10 μM Lys-des-Arg^9-Bradykinin. The final incubation volume was 250 μl. Samples were incubated for 15 min. at 25° C. then were rapidly vacuum filtered through GF/B filters presoaked for at least 1 h in 0.5% PEI. Radioactivity was determined by liquid scintillation spectroscopy.

IC50 [1]	Ki [2]	SMILES
< 20 nM	< 20 nM	CN(C)CCCN1CCN(C(=O)CNC(=O)c2ccc(S(=O)(=O)Nc3ccccc3Oc3ccccc3)cc2)CC1 [Example 2.6, N-{2-[4-(3-Dimethylamino-propyl)-piperazin-1-yl]-2-oxo-ethyl}-4-(2-phenoxy-phenylsulfamoyl)-benzamide]
< 20 nM	< 20 nM	O=C(NCC(=O)N1CCC(CCN2CCCC2)CC1)c1ccc(S(=O)(=O)Nc2ccccc2Oc2ccccc2)cc1 [Example 2.7, N-{2-Oxo-2-[4-(2-pyrrolidin-1-yl-ethyl)-piperidin-1-yl]-ethyl}-4-(2-phenoxy-phenylsulfamoyl)-benzamide]
20 to 100 nM	20 to 100 nM	O=C(NCC(=O)N1CCC(O)CC1)c1ccc(S(=O)(=O)Nc2ccccc2Oc2ccccc2)cc1 [Example 2.10, N-[2-(4-Hydroxy-piperidin-1-yl)-2-oxo-ethyl]-4-(2-phenoxy-phenylsulfamoyl)-benzamide]
< 20 nM	< 20 nM	CN1CCC(N2CCN(C(=O)CNC(=O)c3ccc(S(=O)(=O)Nc4ccccc4Oc4ccccc4)cc3)CC2)CC1 [Example 2.34, N-{2-[4-(1-Methyl-piperidin-4-yl)-piperazin-1-yl]-2-oxo-ethyl}-4-(2-phenoxy-phenylsulfamoyl)-benzamide]
< 20 nM	< 20 nM	O=C(NCC(=O)N1CCN(CCN2CCCC2)CC1)c1ccc(S(=O)(=O)Nc2ccccc2C(=O)c2ccccc2)cc1 [Example 3.1, 4-(2-Benzoyl-phenylsulfamoyl)-N-{2-oxo-2-[4-(2-pyrrolidin-1-yl-ethyl)-piperazin-1-yl]-ethyl}-benzamide]
< 20 nM	< 20 nM	O=C(NCC(=O)N1CCCCCC1)c1ccc(S(=O)(=O)Nc2ccccc2C(=O)c2ccccc2)cc1 [Example 3.4, N-(2-Azepan-1-yl-2-oxo-ethyl)-4-(2-benzoyl-phenylsulfamoyl)-benzamide]
< 20 nM	< 20 nM	N#CC1CCN(C(=O)CNC(=O)c2ccc(S(=O)(=O)Nc3ccccc3C(=O)c3ccccc3)cc2)CC1 [Example 3.5, 4-(2-Benzoyl-phenylsulfamoyl)-N-[2-(4-cyano-piperidin-1-yl)-2-oxo-ethyl]-benzamide]
< 20 nM	< 20 nM	CC1CCN(C(=O)CNC(=O)c2ccc(S(=O)(=O)Nc3ccccc3C(=O)c3ccccc3)cc2)CC1 [Example 3.7, 4-(2-Benzoyl-phenylsulfamoyl)-N-[2-(4-methyl-piperidin-1-yl)-2-oxo-ethyl]-benzamide]
< 20 nM	< 20 nM	CN(C)CCCN1CCN(C(=O)CNC(=O)c2ccc(S(=O)(=O)Nc3ccccc3C(=O)c3ccccc3)cc2)CC1 [Example 3.14, 4-(2-Benzoyl-phenylsulfamoyl)-N-{2-[4-(3-dimethylamino-propyl)-piperazin-1-yl]-2-oxo-ethyl}-benzamide]

More lines, now with the values behind:

SMILES	IC50 [1]	Ki [2]
NC(=O)C1CCN(C(=O)CNC(=O)c2ccc(S(=O)(=O)Nc3ccccc3Oc3ccccc3)cc2)CC1 [Example 2.15, 1-{2-[4-(2-Phenoxy-phenylsulfamoyl)-benzoylamino]-acetyl}-piperidine-4-carboxylic acid amide]	20 to 100 nM	20 to 100 nM
O=C(NCC(=O)N1CCC(CO)CC1)c1ccc(S(=O)(=O)Nc2ccccc2Oc2ccccc2)cc1 [Example 2.22, N-[2-(4-Hydroxymethyl-piperidin-1-yl)-2-oxo-ethyl]-4-(2-phenoxy-phenylsulfamoyl)-benzamide]	< 20 nM	< 20 nM
CN(C)CCN1CCN(C(=O)CNC(=O)c2ccc(S(=O)(=O)Nc3ccccc3C(=O)c3ccccc3)cc2)CC1 [Example 3.2, 4-(2-Benzoyl-phenylsulfamoyl)-N-{2-[4-(2-dimethylamino-ethyl)-piperazin-1-yl]-2-oxo-ethyl}-benzamide]	< 20 nM	< 20 nM
O=C(NCC(=O)N1CCCCC1)c1ccc(S(=O)(=O)Nc2ccccc2C(=O)c2ccccc2)cc1 [Example 3.3, 4-(2-Benzoyl-phenylsulfamoyl)-N-(2-oxo-2-piperidin-1-yl-ethyl)-benzamide]	< 20 nM	< 20 nM
O=C(NCC(=O)N1CCC(C(F)(F)F)CC1)c1ccc(S(=O)(=O)Nc2ccccc2C(=O)c2ccccc2)cc1 [Example 3.6, 4-(2-Benzoyl-phenylsulfamoyl)-N-[2-oxo-2-(4-trifluoromethyl-piperidin-1-yl)-ethyl]-benzamide]	< 20 nM	< 20 nM
CN1CCCC(CN2CCN(C(=O)CNC(=O)c3ccc(S(=O)(=O)Nc4ccccc4C(=O)c4ccccc4)cc3)CC2)C1 (centres unmarked) [Example 3.8, 4-(2-Benzoyl-phenylsulfamoyl)-N-{2-[4-(1-methyl-piperidin-3-ylmethyl)-piperazin-1-yl]-2-oxo-ethyl}-benzamide]	< 20 nM	< 20 nM
O=C(NCC(=O)N1CCC(CO)CC1)c1ccc(S(=O)(=O)Nc2ccccc2C(=O)c2ccccc2)cc1 [Example 3.9, 4-(2-Benzoyl-phenylsulfamoyl)-N-[2-(4-hydroxymethyl-piperidin-1-yl)-2-oxo-ethyl]-benzamide]	< 20 nM	< 20 nM
O=C(NCC(=O)N1CCC(CCO)CC1)c1ccc(S(=O)(=O)Nc2ccccc2C(=O)c2ccccc2)cc1 [Example 3.10, 4-(2-Benzoyl-phenylsulfamoyl)-N-{2-[4-(2-hydroxy-ethyl)-piperidin-1-yl]-2-oxo-ethyl}-benzamide]	< 20 nM	< 20 nM
O=C(NCC(=O)N1CCN(CCCN2CCCC2)CC1)c1ccc(S(=O)(=O)Nc2ccccc2C(=O)c2ccccc2)cc1 [Example 3.13, 4-(2-Benzoyl-phenylsulfamoyl)-N-{2-oxo-2-[4-(3-pyrrolidin-1-yl-propyl)-piperazin-1-yl]-ethyl}-benzamide]	< 20 nM	< 20 nM
O=C(NCC(=O)N1CCC(CCN2CCCC2)CC1)c1ccc(S(=O)(=O)Nc2ccccc2C(=O)c2ccccc2)cc1 [Example 3.15, 4-(2-Benzoyl-phenylsulfamoyl)-N-{2-oxo-2-[4-(2-pyrrolidin-1-yl-ethyl)-piperidin-1-yl]-ethyl}-benzamide]	< 20 nM	< 20 nM
O=C(NCC(=O)N1CCC(O)CC1)c1ccc(S(=O)(=O)Nc2ccccc2C(=O)c2ccccc2)cc1 [Example 3.16, 4-(2-Benzoyl-phenylsulfamoyl)-N-[2-(4-hydroxy-piperidin-1-yl)-2-oxo-ethyl]-benzamide]	< 20 nM	< 20 nM
NC(=O)C1CCN(C(=O)CNC(=O)c2ccc(S(=O)(=O)Nc3ccccc3C(=O)c3ccccc3)cc2)CC1 [Example 3.17, 1-{2-[4-(2-Benzoyl-phenylsulfamoyl)-benzoylamino]-acetyl}-piperidine-4-carboxylic acid amide]	< 20 nM	< 20 nM
O=C(NCC(=O)N1CCCNCC1)c1ccc(S(=O)(=O)Nc2ccccc2Oc2ccccc2)cc1 [Example 11.1, N-(2-[1,4]-Diazepan-1-yl-2-oxo-ethyl)-4-(2-phenoxy-phenylsulfamoyl)-benzamide hydrochloride]	< 20 nM	20 to 100 nM
